# Experimental data published in publication PMC12691742, “Anti-Cancer Outcome of Glucocorticoid Receptor Transrepression by Synephrine Derivatives in Hematological Malignancies” (International Journal of Molecular Sciences, 2025).
# Tested on: NF-kB activity in K562 and Granta cells
# Experiment: NF-kB.Luc reporter assay, positive control
# Type: cell-based
# Details: TPA 5 ng/mL or 10 ng/mL (method), 5 h
# Experimental: We analyzed GR TR function using an NF-kB.Luc reporter assay with the irritating inflammatory agent phorbol 13-acetate 12-myristate (TPA) as an inducer of NF-kB signaling and positive control.
# Figure 4 Effects of synephrine derivatives on GR transrepression in Granta lymphoma and K562 leukemia cells. (A) K562 and Granta cells stably infected with the lentiviruses bearing the NF-kB luciferase reporter. Cells were incubated for 5 h with the solvent (control), TPA (5 ng/mL), 4S-C2 (10 µM), 8S-E3 (10 µM), 10S-E2 (1 µM), or 13S-G2 (1 µM). Luciferase activity was determined as described in the Materials and Methods section. (B) IL1-α and IL6 mRNA expression in K562 and Granta cells. […] The mean ± SD was calculated for three individual samples/condition (n = 3). […]
# Lentiviral stocks were generated using the lentiviral expression vector NF-kB. […] The infection efficiency exceeded 90% (tracked by GFP fluorescence).
# Cells (10^4 cells/well in a 24-well plate), stably expressing Firefly Luciferase under the NF-kB promoter, were treated for 5 h with TPA (12-O-tetradecanoylphorbol-13-acetate, Boston, MA, USA, 10 ng/mL), 4S-C2 (10 µM), 8S-E3 (10 µM), 10S-E2 (1 µM), 13S-G2 (1 µM), or the vehicle. Luciferase activity was measured as described using a commercial Luciferase Assay (“Promega”, Madison, WI, USA) and Luminometer TD 20/20 (“Turner Design Instruments”, San Jose, CA, USA). […]
structure (smiles),measurement,value
"CCCCCCCCCCCCCC(=O)O[C@@H]1[C@@H](C)[C@@]2(O)[C@@H](C=C(CO)C[C@]3(O)C(=O)C(C)=C[C@@H]23)[C@@H]2C(C)(C)[C@]12OC(C)=O [TPA, 12-O-tetradecanoylphorbol-13-acetate]",NF-kB activation,5-9 fold
